The target of experiment [1] is Prp8 intein (Cryptococcus gattii, UniProt E6R027). The experiment is described as follows: MIG-Prp8 in-gel splicing assay. The format is biochemical. The settings on record: E. coli lysate, TCEP-triggered.
Protocol: The MIG-Prp8 and Prp8-GFP in-gel splicing assays—The MIG Prp8 and Prp8-GFP splicing assays were carried out as described. […] The samples were analyzed in SDS-PAGE without boiling. The gels were quantified using GFP fluorescence and Coomassie blue staining with the Bio-Rad Gel Doc EZ.
This reporter system, MIG-Prp8, comprising a fusion protein of the Prp8 intein flanked by maltose binding protein (MBP) and green fluorescent protein (GFP), allowed observation of functional Prp8 intein splicing in Escherichia coli lysate. […] C-terminal cleavage product (CC; GFP) could also be visualized.
The target in the next experiment is T1, papain (Carica papaya, UniProt P00784).
T1 construct: purchased Sigma-Aldrich
T1 sequence (P00784 134-345): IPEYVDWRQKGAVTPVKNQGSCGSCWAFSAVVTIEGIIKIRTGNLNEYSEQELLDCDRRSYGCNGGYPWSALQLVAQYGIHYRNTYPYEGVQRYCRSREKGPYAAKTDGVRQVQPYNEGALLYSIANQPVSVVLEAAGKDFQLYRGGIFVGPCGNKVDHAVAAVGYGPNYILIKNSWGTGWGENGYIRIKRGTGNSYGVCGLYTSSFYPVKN
The experiment is described as follows: Papain protease inhibition (Abz FRET substrate). The format is biochemical. The settings on record: compound at 400 μM. As to the method: Trypsin and papain protease inhibition—An Abz FRET substrate (Abz-RRRRSAG-nTyr) developed previously (Li et al., “Existing Drugs as Broad-Spectrum and Potent Inhibitors for Zika Virus by Targeting NS2B-NS3 Interaction,” Cell Research 27(8):1046-1064 (2017), which is hereby incorporated by reference in its entirety) was used as the substrate for inhibition of trypsin and papain proteases. In black and clear-bottom 96-well plates, 1 μg trypsin (Sigma-Aldrich) was incubated with DMF or compounds at 400 μM at 25° C. for 30 min in a 70 μl reaction buffer containing 20 mM Tris, pH 8.0, 100 mM NaCl, 5% Glycerol, and 0.05% CHAPS. For papain, 1 μg Papain (Sigma-Aldrich) was incubated with compounds at 400 μM at 25° C. for 30 min in a 70 μl reaction buffer composed of 1.1 mM EDTA, 0.067 mM β-mercaptoethanol, 5.5 mM cysteine. […]

Experiment [2] has as its system Prp8 intein. The experiment is described as follows: Western blot of Prp8 intein splicing in C. neoformans H99. The format is cell-based. The conditions noted are these: 0.32 μg/ml, 3 h post-treatment. As to the method: Western blot (WB)—Fresh colonies of Cryptococcus neoformans were grown in yeast extract peptone dextrose (YPD) broth in an environmental shaker (250 rpm) overnight at 30° C. The fungal cells (5 ml) were diluted in 125 ml YPD broth and grown for 1.5 h to a final cell density of 0.2 at OD530. The cells were distributed to test tubes (3 ml/tube). Then 3 ml of YPD medium containing DMF or 2-fold diluted compounds was added to the cells. The mixtures were incubated at 30° C. in a shaker at 250 RPM for up to 18 h. Samples were spun down and pellets were frozen for WB analysis.
Cryptococcal cells treated with DMF or compounds were washed twice with PBS buffer. Cells were spun down and supernatant was removed. For a 6-ml cell pellet, 30 μl of complete protease inhibitor cocktail in PBS was added to the cells, followed by addition of 400 μl lysis buffer (50 mM Tris, pH 8.0, 500 mM NaCl, 10% glycerol) and 500 μl glass beads. The fungal cells were lysed by rigorous beating for 2 min 3 times. The cell lysate was spun down. Supernatant was mixed with SDS-PAGE loading buffer (1:1). The mixtures were boiled at 95° C. for 10 min, followed by centrifugation at 15,000 rpm for 10 min. Samples were analyzed using 12% SDS-PAGE. The separated samples were blotted to a PVDF membrane and subjected to WB analysis using an antibody against the Prp8 intein. […]

The record followed here is patent US20230233533A1, “COMPOSITIONS, METHODS OF TREATING AND PREVENTING FUNGAL INFECTIONS, AND METHODS OF INHIBITING PRP8 INTEIN EXPRESSION” (Health Research, Inc., priority 2020, published 2023).

Chain of Prp8 intein (Cryptococcus gattii, UniProt E6R027) (E6R027 entry or part of it): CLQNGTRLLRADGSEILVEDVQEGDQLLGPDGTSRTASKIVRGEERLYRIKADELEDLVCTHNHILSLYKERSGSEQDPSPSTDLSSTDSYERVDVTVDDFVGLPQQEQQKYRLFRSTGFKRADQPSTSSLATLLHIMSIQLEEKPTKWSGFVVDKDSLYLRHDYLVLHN

Take `O=C(Nc1ccc(F)cc1)c1nnsc1S(=O)(=O)c1ccc(Cl)cc1` [6G-318S, 5-[(4-chlorophenyl)sulfonyl]-N-(4-fluorophenyl)-1,2,3-thiadiazole-4-carboxamide]: the “inhibition of MIG-Prp8 splicing” value on Prp8 intein [1] was “accumulation of the MIG-Prp8 precursor PP and decrease of LE product in a dose-dependent manner”. The “inhibition of papain protease activity” value on papain is reported as “neither 6G-318S, 6G-319S, nor cisplatin significantly inhibited”. Moreover, the “inhibition of Prp8 splicing in vivo in C. neoformans” value with Prp8 intein [2] is “completely inhibited Prp8 splicing”.
